Test results as given in PubChem BioAssay (NCI).
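Grown in 96-well plates, cells were treated for 48 hours with each compound at five concentrations. Insufficient inhibition: endpoint recorded as highest concentration tested. Here, GI50 denotes the concentration required for 50% inhibition of growth. TGI denotes the concentration required for complete inhibition of growth.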

Key:
Assay in all cases: growth of human tumour cells (NCI), 48 h
T-47D breast = test system: T-47D breast
UACC-257 melanoma = test system: UACC-257 melanoma
SK-MEL-2 melanoma = test system: SK-MEL-2 melanoma
NCI-H226 lung = test system: NCI-H226 lung
COLO 205 colon = test system: COLO 205 colon
NCI/ADR-RES ovarian = test system: NCI/ADR-RES ovarian
HOP-92 NSCLC = test system: HOP-92 NSCLC
HCT-116 colon = test system: HCT-116 colon
SNB-19 CNS = test system: SNB-19 CNS
RXF 393 renal = test system: RXF 393 renal

Row | SMILES | GI50 (T-47D breast) | TGI (T-47D breast) | GI50 (UACC-257 melanoma) | TGI (UACC-257 melanoma) | GI50 (SK-MEL-2 melanoma) | TGI (SK-MEL-2 melanoma) | GI50 (NCI-H226 lung) | TGI (NCI-H226 lung) | GI50 (COLO 205 colon) | TGI (COLO 205 colon) | GI50 (NCI/ADR-RES ovarian) | TGI (NCI/ADR-RES ovarian) | GI50 (HOP-92 NSCLC) | TGI (HOP-92 NSCLC) | GI50 (HCT-116 colon) | TGI (HCT-116 colon) | GI50 (SNB-19 CNS) | TGI (SNB-19 CNS) | GI50 (RXF 393 renal) | TGI (RXF 393 renal)
1 | O=C(c1ccccc1)c1c(NCC(O)CN2CCOCC2)n(Cc2ccccc2)c(=O)n(Cc2ccccc2)c1=O (stereo not given) | 1.69 µM | > 43.3 µM | 55.8 µM | > 100 µM | > 66.4 µM | > 100 µM | 31.6 µM | > 95.1 µM | 7.61 µM | > 39.1 µM | 2.17 µM | > 27.4 µM | 17.9 µM | 70.8 µM | 34.1 µM | > 100 µM | 19.1 µM | > 84.7 µM | 25.3 µM | > 94 µM
2 | Cc1nc(Nc2cccnc2)sc1C(=O)/C=C/c1ccc(Cl)cc1 | 2.57 µM | 29.4 µM | 9.22 µM | > 100 µM | 3.97 µM | 18.3 µM | 2.75 µM | 8.12 µM | 2.53 µM | 6.47 µM | 3.03 µM | 11.1 µM | 3.23 µM | 15.2 µM | 1.85 µM | 5.03 µM | 2.31 µM | 5.99 µM | 2.43 µM | 5.46 µM
3 | CCN(c1cc(-c2ccc(CN3CCOCC3)cc2)cc(C(=O)NCc2c(C)cc(C)[nH]c2=O)c1C)C1CCOCC1 | 18.9 µM | 53.4 µM | 16.2 µM | 33.5 µM | 16.6 µM | 35.8 µM | 16.5 µM | 40.8 µM | 18.1 µM | 34.9 µM | 36.2 µM | > 100 µM | 16.8 µM | > 57 µM | 18.5 µM | 40.3 µM | 37.4 µM | > 84.5 µM | 16.5 µM | 44.7 µM
4 | C1CC[N-]CC1.CC(=N\O)/C(C)=N/O.CC(=N\O)/C(C)=N/O.OC1[CH-]CCCC1.[Co+2] | 16.5 µM | 69.5 µM | 29.5 µM | > 100 µM | 23.9 µM | 59.7 µM | > 100 µM | > 100 µM | 19 µM | 34.5 µM | > 100 µM | > 100 µM | 22.2 µM | 93.1 µM | 30.3 µM | > 100 µM | > 100 µM | > 100 µM | 19.2 µM | 62.4 µM
5 | Cc1ccc(S(=O)(=O)c2nc(-c3ccccc3)oc2S(C)=O)cc1 (stereo not given) | 1.23 µM | 3.17 µM | 1.58 µM | 3.11 µM | 1.73 µM | 3.73 µM | 1.96 µM | 4.73 µM | 1.72 µM | 3.56 µM | 2.14 µM | 4.89 µM | 1.38 µM | 2.77 µM | 1.49 µM | 2.89 µM | 3.35 µM | 11.2 µM | 1.46 µM | 2.87 µM
